Patent US10967032B2, “Optimum ratio for herbs combination obtained by using scientific-based formula for hypertension treatment and a composition thereof” (priority 2017, dated 2021)

What was measured:
[1] = tested on: inositol triphosphate receptor (IP3R); assay: IP3R study: PE-induced contraction of pre-treated endothelium-denuded aortic rings; assay type: cell-based, rat; conditions: 100 μM pre-incubation; P<0.001
Procedure: Similar with the VOCC mechanism study, three sets of experiments were carried out for investigating IP3R including the positive control set by applying the 2-APB (100 μM), control set (without treatment), and experimental sets by applying F1-2 (100 μl of 0.5, 2, and 8 mg/ml, separately, which equals to final concentration of 0.005, 0.02, and 0.08 mg/ml in tissue bath), in the endothelium-denuded isolated aortic rings. Similar protocol as elaborated in VOCC mechanism study was used to investigate this mechanism study. The only step different from VOCC mechanism study was the cumulative addition of CaCl2 was replaced by adding PE (1 μM) and left for 20 minutes to induce transient contraction after the 20 minutes pre-incubation with either 2-APB (positive control), F1-2 (experimental sets). The Cmax values were recorded and compared among each other.

[2] = tested on: voltage-operated calcium channel (VOCC); assay: VOCC study: CaCl2-induced vasoconstriction of pre-treated aortic rings; assay type: cell-based, rat; conditions: 0.1, 0.3, 1 μM pre-incubation
Procedure: The experiment started by rinsing the mounted aortic rings with normal Krebs' solution for 3 times at 10 minutes interval. After that, the aortic rings were rinsed with EGTA (0.2 mM) contained Ca^2+-free high K^+ Krebs' solution for 10 minutes to eradicate the Ca^2+ residue, followed by rinsing with Ca^2+-free high K^+ Krebs' solution for twice at 10 minutes intervals. The resting potential was re-adjusted to 1.0 g before the application of any chemicals. In the control set, CaCl2 was added cumulatively (0.01-10 mM) into the tissue bath at 3 minutes interval. […] In the experimental groups, the F1-2 was added into tissue baths for 20 minutes before the addition of CaCl2. After that, the concentration-response curves were constructed, and maximum contraction (Cmax) values were recorded and compared to each other.

[3] = tested on: spontaneous hypertensive rats (SHRs); assay: Antihypertensive effect in SHRs, 28 days oral administration, tail-cuff SBP, DBP, MAP; assay type: in vivo, rat; conditions: 80 mg/kg oral
Procedure: All the orally administrated drugs were freshly prepared on the day the experiment was carried out. Thirty male SHRs were divided into five groups (n=6 per group) as such negative control, positive control (80 mg/kg of propranolol), and experimental groups (three different dosages for different groups). The weight, systolic BP, diastolic BP, and MAP of all SHRs in five groups were determined before the experiment was carried out and assigned as results for week 0. The negative control group of SHRs was treated with 5 ml/kg of distilled water. The positive control group was treated with 80 mg/kg of propranolol. The experimental groups were treated with 0.24273 (small dose), 0.48546 (medium dose), and 0.97092 g/kg (high dose) of F1-2, separately. Propranolol and F1-2 were prepared by dissolving in 0.5% of CMC prior to the administration. All drugs were orally administrated by using the 14-sized curved feeding needle (Kent Scientific Corporation, Torrington, Conn., USA) every morning after eight hours of fasting the night before, and were treated for 28 days consecutively with their weight, systolic BP, diastolic BP, and MAP measured once a week.
The SBP, DBP, and MAP were measured by using tail-cuff method with the non-invasive blood pressure measurement system, CODA (Kent Scientific Corporation, Torrington, Conn., USA) which was equipped with a controller, laptop CODA software, cuffs, animal restrainers, infrared warming pads, and infrared thermometer. The measurements were performed by the same researcher at the same daytime once weekly. Before the experiments commenced, the SHRs were housed in the restrainer according to their body size and pre-warmed on the warming plate at 32° C. and were covered by warming blanket for at least 15 minutes to intensify the pulsation of the tail artery. The measurements were repeated at least […] for each SHR to obtain at least six accepted measurements (n=6) by the CODA program. The obtained SBP, DBP, MAP of positive control and experimental groups were compared to the negative control.

Q: For NCCOB(c1ccccc1)c1ccccc1 [Formula 2-APB, 2-APB], which “contraction tension abolished compared to control” value [1] is on record?
A: approximately 97%

Q: For COC(=O)C1=C(C)NC(C)=C(C(=O)OC)C1c1ccccc1[N+](=O)[O-] [nifedipine], which “suppression of the contractile tone compared to control” value [2] is on record?
A: at least 80%

Q: What does the source list for CC(C)NCC(O)COc1cccc2ccccc12 (centres unmarked) [propranolol]?
A: DBP ([3]; 28 days, control 189.19±3.61): 139.69±3.15 mmHg; MAP ([3]; 28 days, control 200.97±3.22): 152.06±3.10 mmHg; SBP ([3]; week 4 (28 days), control 225.81±2.77): 182.08±2.38 mmHg
